# According to patent publication EP2098223A1, “Compressed solid dosage form” (Teva Pharmaceutical Industries Ltd., priority 2004, dated 2006):
# Structures can show the parent of a compound that is named as a salt.
# Experiment: Particle size distribution by laser light scattering (Malvern Mastersizer S)
# Format: physicochemical
# Settings: mean equivalent spherical diameter; raloxifene hydrochloride used in Formulations 1-4
# Source text: For example, in Formulations 1-4 below, d(0.5) = 38.8 µm and d(0.9) = 90.4 µm. All particle sizes herein refer to the mean equivalent spherical diameter measured by laser light scattering techniques. Thus, the notation "d(0.5) greater than about 35 µm" means that 50% of the particles by volume have a mean equivalent spherical diameter of more than about 35 µm, as measured by laser light scattering. The laser light scattering measurement instrument used to measure the particle size distributions in the Examples was a Malvern Mastersizer® S. The dissolution profile was generated by testing in either 900 mL or 2 L of a 0.1 % aqueous polysorbate 80 solution, using paddle apparatus (USP Apparatus II) at 50 rpm at 37°C.
structure (smiles),measurement,value
O=C(c1ccc(OCCN2CCCCC2)cc1)c1c(-c2ccc(O)cc2)sc2cc(O)ccc12 [raloxifene hydrochloride],d(0.5),38.8 µm
same,d(0.9),90.4 µm
